# Assay: Observation of the monomer composition about one minute and at least twenty-four hours after preparation
# Format: physicochemical
# Settings: 1 wt % in 2 mL 2-octyl cyanoacrylate monomer
# Method: A 2-octyl cyanoacrylate monomer composition is prepared by adding 1 wt % menthol to 2 mL of 2-octyl cyanoacrylate monomer. The mixture is stirred.
# The characteristics of the composition are observed at about one minute after preparation and later at least twenty-four hours after preparation.
structure (smiles),measurement,value
CC1CCC(C(C)C)C(O)C1 (stereo not shown) [menthol],solubility of the additive in 2-octyl cyanoacrylate monomer,soluble in the monomer
